The results in this text go back to patent EP4813988A1, “AI-DESIGNED BENZODIAZEPINE DERIVATIVE AND USE THEREOF” (Shenzhen Newrosetta Biosciences Co., Ltd, priority 2024, dated 2025).

The target in test [1] is T1, Human M2 receptor (Homo sapiens, UniProt P08172).
T1 construct: expressed in transfected cells
T1 sequence (P08172 1-466): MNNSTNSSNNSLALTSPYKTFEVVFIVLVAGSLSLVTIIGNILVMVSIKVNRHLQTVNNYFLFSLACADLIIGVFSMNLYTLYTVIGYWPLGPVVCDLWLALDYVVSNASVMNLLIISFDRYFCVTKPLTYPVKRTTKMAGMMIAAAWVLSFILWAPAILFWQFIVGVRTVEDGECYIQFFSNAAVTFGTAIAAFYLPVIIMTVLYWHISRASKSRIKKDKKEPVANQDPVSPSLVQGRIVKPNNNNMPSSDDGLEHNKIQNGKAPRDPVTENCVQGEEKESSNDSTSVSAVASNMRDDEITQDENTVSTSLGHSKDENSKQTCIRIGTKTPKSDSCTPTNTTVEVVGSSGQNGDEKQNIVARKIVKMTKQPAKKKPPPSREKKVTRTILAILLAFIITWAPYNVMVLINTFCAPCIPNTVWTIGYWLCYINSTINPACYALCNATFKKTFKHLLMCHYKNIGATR
The experiment in a line: FLIPR Calcium 6 assay for inhibitory activity against Human M2 receptor in CHO cells. The class given is cell-based. The settings on record: for M3/M2 selectivity: IC50 ratio of M3/M2. On the procedure:
(§1) CHO cell lines stably expressing Human M2 and Human M3, respectively, were used. The effects of the compounds on the activity of the Human M2 and Human M3 receptors were determined using the FLIPR Calcium 6 Assay Kit. The effects of the test substances on Human M2 and Human M3 were studied according to changes in cell signal intensity, and the corresponding concentration-response curves were calculated.
(§2) • 1. The Human M2-CHO and Human M3-CHO cell lines were cultured in an F-12 culture medium containing 10% fetal bovine serum (AusGeneX, FBS500-S) and 0.2 mg/mL Hygromycin B (Solarbio, H8080-1g) at a culture temperature of 37 °C with 5% carbon dioxide. • 2. Cell passage: The old culture medium was removed in a biosafety cabinet, and the cells were washed once with PBS; 1 mL of 0.25% Trypsin-EDTA (Gibco, 25200-072) solution was then added; and the cells were incubated at 37 °C for about 2 min. When the cells were detached from the bottom of the dish, about 5 mL of complete culture medium pre-heated at 37 °C was added. The cell suspension was gently pipetted to separate the aggregated cells. The cell suspension was transferred to a sterile centrifuge tube and centrifuged at 1000 rpm for 5 min. • 3. In order to maintain the physiological activity of the cells, the experimental cell confluence was controlled at about 80% as observed under an inverted microscope (Olympus, CKX53).
(§3) • 1. Cell plating: Human M2-CHO and Human M3-CHO cells were digested, collected, resuspended, counted, and then seeded into a 384-well cell plate (Corning, 3764) at a density of 1.2 × 10^4 cells/25 µL /well; the cell plate was then incubated in a 5% CO2 incubator at 37 °C for about 16-20 h. • 2. On day 2, an Assay Buffer (20 mM HEPES + 1× HBSS) was prepared according to the instructions of the FLIPR Calcium 6 Assay Kit (Molecular Devices, R8191); after 20× Component A was freeze-thawed to room temperature, it was diluted to 1× loading buffer with the Assay buffer, and placed at room temperature for later use. • 3. The culture medium in the cell plate was removed, 35 µL of the 1× loading buffer described above was quickly added to each well, and the cell plate was centrifuged using a microplate low speed centrifuge and then incubated in the dark at 37 °C for 120 min. • 4. The working solutions of a positive compound and the test compounds were each prepared in a 96-well dilution plate (Biao Sen, P-0.6-BSA-96-S); 5 µL of each solution was transferred to the corresponding cell wells; and the cell plate was incubated at 37 °C for 30 min in the dark. • 5. An agonist working solution was prepared and transferred to a 384-well compound plate (Corning, 264573) at 20 µL /well. • 6. The cell plate (Corning, 3764), the 384-well compound plate (Corning, 264573), and pipette tips were placed at corresponding positions of the FLIPR instrument; 10 µL of the agonist diluted in step 5 was added to each experimental well using the FLIPR® Penta; and data were collected at the wavelength of 515-575 nm. • 7. The signal values were plotted against the compound concentrations, and based on a non-linear regression method using the GraphPad Prism software, the curves were fit, and the IC50 values were calculated.
(§4) • 1) Z′ factor = 1−3 × (SDMax+SDMin)/(AVGMax−AVGMin) [formula] • 2) CV Max = (SDMax/AVGMax) × 100% [formula] • 3) CV Min = (SDMin/AVGMin) × 100% [formula] • 4) Signal−to−noise ratio S/B = AVGMax /AVGMin [formula] • 5) The IC50 values of the compounds were calculated using the GraphPad Prism non-linear fitting formula: Y = Bottom + (Top−Bottom)/(1+10^(∧)((LogIC50−X)×HillSlope)) [formula] • 6) % inhibition rate formula: [formula] • Ratiopositive: mean value of positive control. • Ratiovehicle: mean value of negative control (0.1% DMSO).
(§5) According to the experimental method described above, the inhibitory activity of the compounds disclosed herein against Human M2 and M3 receptors was assayed with AFDX-116 as a positive control compound. Table 3. […]

In test [2] the target is T2, Human M3 receptor (Homo sapiens, UniProt P20309).
T2 construct: expressed in transfected cells
T2 sequence (P20309 whole entry): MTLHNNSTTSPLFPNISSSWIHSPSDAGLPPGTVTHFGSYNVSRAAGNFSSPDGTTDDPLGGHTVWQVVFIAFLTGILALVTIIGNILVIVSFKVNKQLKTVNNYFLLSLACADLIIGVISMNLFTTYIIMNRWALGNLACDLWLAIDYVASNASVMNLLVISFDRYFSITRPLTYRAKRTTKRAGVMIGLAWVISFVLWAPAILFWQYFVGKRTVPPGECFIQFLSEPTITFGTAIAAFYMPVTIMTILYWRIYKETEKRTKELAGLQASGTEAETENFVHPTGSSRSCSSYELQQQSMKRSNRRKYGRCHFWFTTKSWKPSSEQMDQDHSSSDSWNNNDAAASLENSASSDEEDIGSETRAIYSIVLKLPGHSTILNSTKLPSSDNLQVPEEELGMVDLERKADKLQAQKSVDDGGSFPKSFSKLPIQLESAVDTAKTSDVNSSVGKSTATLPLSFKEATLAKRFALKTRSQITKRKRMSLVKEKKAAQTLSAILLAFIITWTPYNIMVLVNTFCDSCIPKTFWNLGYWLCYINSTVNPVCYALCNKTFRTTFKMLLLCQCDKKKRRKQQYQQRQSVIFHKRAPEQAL
The test is described as follows: FLIPR Calcium 6 assay for inhibitory activity against Human M3 receptor in CHO cells. The class given is cell-based. The following applies: FLIPR calcium signal, antagonist mode. The procedure: as §1, §2, §3, §4, §5

Test [3] has as its system guinea pig myopia model. The experiment in a line: In vivo efficacy evaluation in form-deprivation guinea pig myopia model (diopter by infrared photorefractor). The settings on record: 20 µL/eye once daily; for slowing down the progression of refraction decrease: 0.5 wt% eye drops, versus negative control group. The text has this: Objective: To evaluate the inhibitory effect of compound 2 on the progression of myopia (refractive error) in a guinea pig myopia model. Young guinea pigs have inherent refractive hyperopia, which gradually progresses towards emmetropization during eye development. Form deprivation accelerates the process of emmetropization. In this test, the delaying effect of compound 2 on the process of refractive emmetropization in modeled young guinea pigs was investigated.
Sample preparation: 0.5 wt% compound 2 eye drops were formulated with compound 2 and a 10 wt% aqueous sulfobutylether-beta-cyclodextrin solution.
Grouping: The guinea pigs were evenly divided into 3 groups according to the refractive value of the right eye: a negative control group, a model control group, and a compound 2 group.
Modeling: Animals other than the negative control group were modeled. A myopia model was made by suturing the eyelid of the right eye. The modeling procedure is as follows: After hair removal was performed on the right eyes of all animals, the right eyes were sutured in a U-shape to achieve form deprivation and accelerate the process of emmetropization. The guinea pigs were fed for 28 days after the first suture.
Administration: Starting from the day of suture modeling, eye drops were administered to the right eyes of the animals in each group according to settings (the samples for administration are shown in Table 4) at 20 µL /eye once daily for 28 consecutive days. Table 4. Administration and dosage design for each group
Test: Diopter was measured on day 15 and day 29 after modeling using an infrared photorefractor (ST-PR.01, Striatech).

The mark [4] stands for this setting: Human M2-CHO cells, FLIPR calcium signal, antagonist mode, read-out: M2 IC50.

The structures appear in SMILES notation. Like-named read-outs stand apart in the source and are kept apart here.

For orientation: IC50 means the concentration needed to halve the response being measured. On to `CCN(CCN(C)C1CC2CCCC2C1)C(=O)CCC(=O)N1c2ccccc2C(=O)Nc2cccnc21` (stereo not drawn) [Compound 12], for which the IC50 in test [1] (setting [4]) was determined as 0.00182 µM; in test [2], 0.184 µM. In test [1], the M3/M2 selectivity was determined as 101.
Turning to `CCN(CCN(C)C12CC3CC(CC(C3)C1)C2)C(=O)CCC(=O)N1c2ccccc2C(=O)Nc2cccnc21` [Compound 6], the IC50 in test [1] (setting [4]) came out at 0.000863 µM; in test [2] it was 0.723 µM. Also, the M3/M2 selectivity in test [1] came to 838.
The corresponding values for `CCN(CCN1CCC2(CCC2)CC1)C(=O)CCC(=O)N1c2ccccc2C(=O)Nc2cccnc21` [Compound 8] are 0.000896 µM, 0.141 µM and 157.7.
For the compound `CCN(CCN(C)C1C2CCCC21)C(=O)CCC(=O)N1c2ccccc2C(=O)Nc2cccnc21` (stereo not drawn) [Compound 13], the IC50 was 0.00546 µM in test [1] (setting [4]) and 0.26 µM in test [2]. For the same compound, in test [1], the M3/M2 selectivity came to 47.6.
The corresponding values for `CCN(CCN(C)CC1CCC2(CCCCC2)CC1)C(=O)CCC(=O)N1c2ccccc2C(=O)Nc2cccnc21` [Compound 3] are 0.00654 µM, 6.82 µM and 1041.
The corresponding values for `CCN(CCN(C)CC12CCC(CC1)C2)C(=O)CCC(=O)N1c2ccccc2C(=O)Nc2cccnc21` [Compound 4] are 0.00149 µM, 0.132 µM and 88.6.
As to `CCN(CCN1CCC2(CCCCC2)CC1)C(=O)CCC(=O)N1c2ccccc2C(=O)Nc2cccnc21` [Compound 2], the “diopter (refractive value)” value in test [3] (day 15, 0.5 wt% compound 2 eye drops, right eye, form deprivation by eyelid suture) was “increase in the positive refractive value”. Moreover, the entries for the “slowing down the progression of refraction decrease” value in test [3] (day 15 of administration) and in test [3] (day 29 of administration) were “superior to the negative control group” and “comparable to the negative control group”, respectively. The IC50 was found to be 0.000733 µM in test [1] (setting [4]) and 0.0559 µM in test [2]. For the same compound, in test [1], the M3/M2 selectivity is recorded as 76.
As for `O=C1Nc2cccnc2N(C(=O)CCC(=O)N2CCCCC2CN2CCC3(CCCCC3)CC2)c2ccccc21` (stereo not drawn) [Compound 14], the IC50 in test [1] (setting [4]) came out at 0.000833 µM; in test [2] it was 0.328 µM. In addition, the M3/M2 selectivity in test [1] is on record as 394.1.
On the same counts, the results for `CCN(CCN1CC2CC2C1)C(=O)CCC(=O)N1c2ccccc2C(=O)Nc2cccnc21` (stereo not drawn) [Compound 7] are 0.000714 µM, 0.0541 µM and 75.87.
On the same counts, the results for `CCN(CCN(C)C1CCC2(CCCC2)C1)C(=O)CCC(=O)N1c2ccccc2C(=O)Nc2cccnc21` (stereo not drawn) [Compound 11] are 0.00186 µM, 0.277 µM and 149.
On the same counts, the results for `CCN(CC)CC1CCCCN1CC(=O)N1c2ccccc2C(=O)Nc2cccnc21` (stereo not drawn) [AFDX-116, reference compound] are 0.166 µM, 2.1 µM and 12.
For `O=C1Nc2cccnc2N(C(=O)CCC(=O)N2CCCC2CN2CCC3(CCCCC3)CC2)c2ccccc21` (stereo not drawn) [Compound 15], the values for the IC50 in test [1] (setting [4]) and in test [2] were 0.00113 µM and 0.247 µM, respectively. Moreover, the M3/M2 selectivity in test [1] came out at 217.6.
`CCN(CCN(C)C1CCC2(CCCCC2)CC1)C(=O)CCC(=O)N1c2ccccc2C(=O)Nc2cccnc21` [Compound 1]: the figures for the IC50 in test [1] (setting [4]) and in test [2] were 0.00323 µM and 0.611 µM, respectively. The M3/M2 selectivity in test [1] came out at 189.
The corresponding values for `CCN(CCN(C)C1CC2(CCC2)C1)C(=O)CCC(=O)N1c2ccccc2C(=O)Nc2cccnc21` [Compound 9] are 0.00298 µM, 0.881 µM and 295.7.
Regarding `CCN(CCN1C2CCCC1CC2)C(=O)CCC(=O)N1c2ccccc2C(=O)Nc2cccnc21` [Compound 5], in test [1], the IC50 stood at 0.00274 µM and the M3/M2 selectivity came out at 245.6. The half-inhibitory concentration (IC50) in test [2] came to 0.673 µM.
As to `CCN(CCN(C)C1CC2(CCCCC2)C1)C(=O)CCC(=O)N1c2ccccc2C(=O)Nc2cccnc21` [Compound 10], the IC50 in test [1] (setting [4]) was determined as 0.00258 µM; in test [2], 1.97 µM. Further, in test [1], the M3/M2 selectivity was 762.
